According to US9108921B2, “Therapeutic compounds and compositions” (AGIOS PHARMACEUTICALS, INC, priority 2014, dated 2015):

How the values were obtained:
[1] = biological target: PKR R510Q (Homo sapiens, UniProt P30613, R510Q); experiment: PKR Mutant Assay, AC50 against PKR R510Q; format: biochemical; conditions: mutant PKR R510Q enzyme
In short: (§1)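 LDH-coupled read-out: NADH (180 uM) consumption followed as absorbance change at 340 nm, room temperature, after ADP addition. Mutant PKR enzyme 80-400 ng/well, PEP 0.1-0.5 mM, ADP 0.22-1.65 mM; compound preincubated 60 min with all components except ADP.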

[2] = biological target: PKR R532W (Homo sapiens, UniProt P30613, R532W); experiment: PKR Mutant Assay, AC50 against PKR R532W; format: biochemical; conditions: mutant PKR R532W enzyme
Chain of PKR R532W (P30613 whole entry R532W): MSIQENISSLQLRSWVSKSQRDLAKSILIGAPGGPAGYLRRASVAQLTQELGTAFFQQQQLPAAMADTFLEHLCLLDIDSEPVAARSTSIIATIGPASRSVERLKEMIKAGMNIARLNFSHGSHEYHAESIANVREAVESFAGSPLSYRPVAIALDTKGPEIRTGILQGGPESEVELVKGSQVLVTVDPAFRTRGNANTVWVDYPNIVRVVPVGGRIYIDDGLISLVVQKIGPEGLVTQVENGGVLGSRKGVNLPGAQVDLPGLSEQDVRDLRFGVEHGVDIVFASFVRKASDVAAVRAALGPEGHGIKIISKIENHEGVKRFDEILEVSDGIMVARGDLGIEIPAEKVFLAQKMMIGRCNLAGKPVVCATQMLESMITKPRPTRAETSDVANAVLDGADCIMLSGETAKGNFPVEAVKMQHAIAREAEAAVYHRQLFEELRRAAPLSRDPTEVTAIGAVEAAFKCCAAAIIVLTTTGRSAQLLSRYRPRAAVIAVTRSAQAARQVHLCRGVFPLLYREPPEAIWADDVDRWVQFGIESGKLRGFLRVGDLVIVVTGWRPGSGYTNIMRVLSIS
In short: as §1

[3] = biological target: T1, PKR WT (Homo sapiens, UniProt P30613); experiment: PKR WT enzymatic AC50 assay; format: biochemical; conditions: wild type PKR
T1 sequence (P30613 whole entry): as the sequence (P30613 whole entry R532W) above, with W532R counted along it
In short: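 PK-LDH coupled assay, RT. Enzyme + cpd + PEP/NADH/LDH, 60 min pre-incubation, no ADP. ADP 0.22-1.65 mM to initiate; A340 kinetic read. Cpd 11 pts, 3-fold, 100 μM top.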

[4] = biological target: T1, PKR WT; experiment: PKR WT cell based AC50 assay; conditions: wild type PKR

Chain of PKR R510Q (P30613 whole entry R510Q): as the sequence (P30613 whole entry R532W) above, with R510Q, W532R counted along it

Structure (SMILES)	AC50 [1] [nM]	AC50 [2] [nM]	AC50 [3] [nM]	AC50 [4] [nM]
Cc1cc(C(=O)N2CCC(O)(c3cccc(F)c3F)CC2)ccc1NS(=O)(=O)c1cccc2nccnc12 [Compound 175, N-(4-(4-(2,3-difluorophenyl)-4-hydroxypiperidine-1-carbonyl)-2-methylphenyl)quinoxaline-5-sulfonamide]	101 to 1000	< 100	< 100	< 100
O=C(c1ccc(NS(=O)(=O)c2cccc(Cl)c2Cl)cc1)N1CCC(O)(Cc2ccccc2)CC1 [Compound 237, N-(4-(4-benzyl-4-hydroxypiperidine-1-carbonyl)phenyl)-2,3-dichlorobenzenesulfonamide]	101 to 1000	101 to 1000	101 to 1000	101 to 1000
O=C(c1ccc(NS(=O)(=O)c2cccc3cccnc23)cc1)N1CCC(O)(c2cccnc2F)CC1 [Compound 217, N-(4-(4-(2-fluoropyridin-3-yl)-4-hydroxypiperidine-1-carbonyl)phenyl)quinoline-8-sulfonamide]	101 to 1000	101 to 1000	< 100	101 to 1000
COc1ccccc1C1(O)CCN(C(=O)c2ccc(NS(=O)(=O)c3cccc4cccnc34)cc2)CC1 [Compound 184, N-(4-(4-hydroxy-4-(2-methoxyphenyl)piperidine-1-carbonyl)phenyl)quinoline-8-sulfonamide]	101 to 1000	< 100	< 100	101 to 1000
O=C(c1ccc(NS(=O)(=O)c2cccc3scnc23)cc1)N1CCC(O)(CCC=C(F)F)CC1 [Compound 393, N-(4-(4-(4,4-difluorobut-3-en-1-yl)-4-hydroxypiperidine-1-carbonyl)phenyl)benzo[d]thiazole-4-sulfonamide]	101 to 1000	< 100	< 100	< 100
Nc1c(O)cccc1S(=O)(=O)Nc1ccc(C(=O)N2CCC(O)(c3ccccc3Cl)CC2)cc1 [Compound 382, 2-amino-N-(4-(4-(2-chlorophenyl)-4-hydroxypiperidine-1-carbonyl)phenyl)-3-hydroxybenzenesulfonamide]	101 to 1000	101 to 1000	< 100	< 100
COCCC1(O)CCN(C(=O)c2ccc(NS(=O)(=O)c3cccc4cccnc34)cc2)CC1 [Compound 225, N-[4-[4-hydroxy-4-(2-methoxyethyl)piperidine-1-carbonyl]phenyl]quinoline-8-sulfonamide]	101 to 1000	101 to 1000	< 100	101 to 1000
CC(CC1(O)CCN(C(=O)c2ccc(NS(=O)(=O)c3cccc4sc(N)nc34)cc2)CC1)C(F)(F)F (centres unmarked) [Compound 429]	< 100	< 100	< 100	< 100
O=C(c1ccc(NS(=O)(=O)c2cccc3cccnc23)cc1)N1CCC(O)(c2ncccc2C(F)(F)F)CC1 [Compound 164, N-(4-(4-hydroxy-4-(3-(trifluoromethyl)pyridin-2-yl)piperidine-1-carbonyl)phenyl)quinoline-8-sulfonamide]	101 to 1000	< 100	< 100	< 100
Cc1cccc(CC2(O)CCN(C(=O)c3ccc(NS(=O)(=O)c4cccc5cccnc45)cc3)CC2)n1 [Compound 207, N-(4-(4-hydroxy-4-((6-methylpyridin-2-yl)methyl)piperidine-1-carbonyl)phenyl)quinoline-8-sulfonamide]	101 to 1000	< 100	< 100	101 to 1000
CC(C)(C)CC1(O)CCN(C(=O)c2ccc(NS(=O)(=O)c3cccc4nccnc34)cc2)CC1 [Compound 130, N-(4-(4-hydroxy-4-neopentylpiperidine-1-carbonyl)phenyl)quinoxaline-5-sulfonamide]	< 100	< 100	< 100	< 100
O=C(c1ccc(NS(=O)(=O)c2cccc3cccnc23)cc1)N1CCC(O)(Cc2cccc(F)n2)CC1 [Compound 146, N-(4-(4-((6-fluoropyridin-2-yl)methyl)-4-hydroxypiperidine-1-carbonyl)phenyl)quinoline-8-sulfonamide]	101 to 1000	< 100	< 100	< 100
CC(C)CC1(O)CCN(C(=O)c2ccc(NS(=O)(=O)c3cccc4c(O)ncnc34)cc2)CC1 [Compound 388, 4-hydroxy-N-(4-(4-hydroxy-4-isobutylpiperidine-1-carbonyl)phenyl)quinazoline-8-sulfonamide]	< 100	< 100	< 100	< 100
O=C(c1ccc(NS(=O)(=O)c2cccc3cc(F)cnc23)cc1)N1CCC(O)(Cc2ccccc2)CC1 [Compound 128, N-(4-(4-benzyl-4-hydroxypiperidine-1-carbonyl)phenyl)-3-fluoroquinoline-8-sulfonamide]	< 100	< 100	< 100	< 100
Cn1cc(CC2(O)CCN(C(=O)c3ccc(NS(=O)(=O)c4cccc5scnc45)cc3)CC2)cn1 [Compound 434]	101 to 1000	< 100	101 to 1000	101 to 1000
Cc1cc(C(=O)N2CCC(O)(Cc3ccccc3)CC2)ccc1NS(=O)(=O)c1cccc2cccnc12 [Compound 101, N-(4-(4-benzyl-4-hydroxypiperidine-1-carbonyl)-2-methylphenyl)quinoline-8-sulfonamide]	< 100	< 100	< 100	< 100
Cc1cc(C(=O)N2CCC(O)(c3ccccc3Cl)CC2)ccc1NS(=O)(=O)c1cccc2nccnc12 [Compound 119, N-(4-(4-(2-chlorophenyl)-4-hydroxypiperidine-1-carbonyl)-2-methylphenyl)quinoxaline-5-sulfonamide]	< 100	< 100	< 100	< 100
CC(C)CC1(O)CCN(C(=O)c2ccc(NS(=O)(=O)c3cccc4ocnc34)cc2)CC1 [Compound 379, N-(4-(4-hydroxy-4-isobutylpiperidine-1-carbonyl)phenyl)benzo[d]oxazole-4-sulfonamide]	101 to 1000	101 to 1000	101 to 1000	101 to 1000
Cc1ccccc1C1(O)CCN(C(=O)c2ccc(NS(=O)(=O)c3cccc4cccnc34)cc2)CC1 [Compound 103, N-(4-(4-hydroxy-4-(o-tolyl)piperidine-1-carbonyl)phenyl)quinoline-8-sulfonamide]	< 100	< 100	< 100	< 100
O=C(c1ccc(NS(=O)(=O)c2cccc3c2OCCC3)cc1)N1CCC(O)(c2ccccc2Cl)CC1 [Compound 102, N-(4-(4-(2-chlorophenyl)-4-hydroxypiperidine-1-carbonyl)phenyl)chroman-8-sulfonamide]	< 100	< 100	< 100	< 100
CC(C)C1(O)CCN(C(=O)c2ccc(NS(=O)(=O)c3cccc4cccnc34)cc2)CC1 [Compound 214, N-(4-(4-hydroxy-4-isopropylpiperidine-1-carbonyl)phenyl)quinoline-8-sulfonamide]	101 to 1000	< 100	< 100	< 100
Cc1cccc(CC2(O)CCN(C(=O)c3ccc(NS(=O)(=O)c4cccc5cccnc45)cc3)CC2)c1 [Compound 118, N-(4-(4-hydroxy-4-(3-methylbenzyl)piperidine-1-carbonyl)phenyl)quinoline-8-sulfonamide]	101 to 1000	< 100	< 100	< 100
Nc1nc2c(S(=O)(=O)Nc3ccc(C(=O)N4CCC(O)(CCC(F)(F)F)CC4)cc3)cccc2s1 [Compound 430]	101 to 1000	< 100	< 100	101 to 1000
Cc1nc(F)ccc1C1(O)CCN(C(=O)c2ccc(NS(=O)(=O)c3ccc(F)c4cccnc34)cc2)CC1 [Compound 229, 5-fluoro-N-(4-(4-(6-fluoro-2-methylpyridin-3-yl)-4-hydroxypiperidine-1-carbonyl)phenyl)quinoline-8-sulfonamide]	101 to 1000	101 to 1000	101 to 1000	101 to 1000
O=C(c1ccc(NS(=O)(=O)c2cccc3cccnc23)cc1)N1CCC(O)(Cc2ccccc2F)CC1 [Compound 110, N-(4-(4-(2-fluorobenzyl)-4-hydroxypiperidine-1-carbonyl)phenyl)quinoline-8-sulfonamide]	< 100	< 100	< 100	< 100
O=C(c1ccc(NS(=O)(=O)c2cccc3cccnc23)cc1)N1CCC(O)(c2cnsc2)CC1 [Compound 180]	101 to 1000	< 100	< 100	< 100
CC(F)(F)CCC1(O)CCN(C(=O)c2ccc(NS(=O)(=O)c3cccc4scnc34)cc2)CC1 [Compound 387, N-(4-(4-(3,3-difluorobutyl)-4-hydroxypiperidine-1-carbonyl)phenyl)benzo[d]thiazole-4-sulfonamide]	101 to 1000	< 100	< 100	101 to 1000
O=C(c1ccc(NS(=O)(=O)c2cccc3cccnc23)cc1)N1CCC(O)(Cc2ccccn2)CC1 [Compound 189, N-(4-(4-hydroxy-4-(pyridin-2-ylmethyl)piperidine-1-carbonyl)phenyl)quinoline-8-sulfonamide]	101 to 1000	< 100	< 100	101 to 1000
CC(F)(F)CCC1(O)CCN(C(=O)c2ccc(NS(=O)(=O)c3cc(F)cc4sc(N)nc34)cc2)CC1 [Compound 435]	< 100	< 100	< 100	101 to 1000
